A short description of data set [1]: Octanol-water partition coefficient, log Kow of the compound.
The target of a further data set is Albumin (Homo sapiens, UniProt P02768). The data set can be described thus: Binding affinity to human serum albumin. As to conditions: isolated protein.
Albumin, sequence (P02768 whole entry): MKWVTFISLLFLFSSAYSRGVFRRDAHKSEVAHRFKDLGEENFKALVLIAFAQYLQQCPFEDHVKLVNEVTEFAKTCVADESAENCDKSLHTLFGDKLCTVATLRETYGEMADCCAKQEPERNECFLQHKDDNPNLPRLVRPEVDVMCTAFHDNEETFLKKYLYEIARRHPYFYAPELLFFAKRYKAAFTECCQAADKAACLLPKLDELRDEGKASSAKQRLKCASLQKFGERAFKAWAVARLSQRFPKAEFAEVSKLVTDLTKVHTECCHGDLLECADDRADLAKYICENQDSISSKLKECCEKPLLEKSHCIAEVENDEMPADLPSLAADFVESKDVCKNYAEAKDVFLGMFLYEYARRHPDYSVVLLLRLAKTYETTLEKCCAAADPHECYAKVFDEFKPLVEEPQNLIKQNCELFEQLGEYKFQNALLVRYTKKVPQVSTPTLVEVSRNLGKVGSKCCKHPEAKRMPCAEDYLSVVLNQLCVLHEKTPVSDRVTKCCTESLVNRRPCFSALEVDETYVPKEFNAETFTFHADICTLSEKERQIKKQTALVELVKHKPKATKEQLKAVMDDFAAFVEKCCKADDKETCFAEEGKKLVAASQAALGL

Consider `CCc1[nH]c2ccccc2c1CC(=O)O`, for which, in data set [1], the logP (usually the decadic logarithm of the partition coefficient of the neutral form, usually between octanol and water) was 2.09. The logKA on Albumin turned out to be 0.031. Turning to `Cc1cccc2[nH]cc(CC(=O)O)c12`, the logP in data set [1] amounted to 1.84. This molecule also showed a logKA at Albumin of 0.155. In the same order, the values of `O=C(O)Cc1c[nH]c2c(Cl)cc(Cl)cc12` are 3.42 and 0.983.

With `CCOC(=O)Cc1c[nH]c2ccccc12`, in data set [1], the logP turned out to be 2.34. The same molecule registered a logKA on Albumin of 0.292. In the same order, the values of `CCCc1ccc2[nH]cc(CC(=O)O)c2c1` are 3.21 and 0.809. The matching figures for `Cc1ccc2c(CC(=O)O)c[nH]c2c1`: 1.96 and 0.689. The matching figures for `Cc1cccc2c(CC(=O)O)c[nH]c12`: 1.95 and 0.288. In turn, `O=C(O)Cc1c[nH]c2ccc(Cl)c(Cl)c12` had a logP in data set [1] of 2.92. Besides, the logKA on Albumin turned out to be 0.799.

In turn, `O=C(O)Cc1c[nH]c2c(Cl)ccc(Cl)c12` registered a logP in data set [1] of 3.02. On Albumin, this molecule registered a logKA of 0.84.

For `O=C(O)Cc1c[nH]c2cccc(Cl)c12`, the logP in data set [1] turned out to be 2.13. This molecule registered a logKA at Albumin of 0.458. Molecule `O=C(O)Cc1c[nH]c2ccc(Cl)cc12` returned a logP in data set [1] of 2.38. The molecule also yielded a logKA on Albumin of 0.646.

The molecule `O=C(O)Cc1c[nH]c2c(Cl)cccc12` had a logP in data set [1] of 2.32. In addition, the logKA on Albumin came to 0.623. As to `Cc1[nH]c2ccccc2c1CC(=O)O`, in data set [1], the logP was 1.72. In addition, the logKA on Albumin is -0.04. On to `O=C(O)Cc1c[nH]c2ccc(OCc3ccccc3)cc12`, for which the logP in data set [1] was 3.2. The molecule `CCc1ccc2c(CC(=O)O)c[nH]c2c1` came in with a logP in data set [1] of 2.56. This molecule displayed a logKA at Albumin of 1.044. In turn, `O=C(O)Cc1c[nH]c2c(F)cccc12` yielded a lipophilicity (logP) in data set [1] of 1.81. The same molecule came in with a logKA on Albumin of 0.247. In the same order, the values of `O=C(O)Cc1c[nH]c2cc(Cl)c(Cl)cc12` are 3.2 and 1.436. Turning to `O=C(O)Cc1c[nH]c2ncccc12`, in data set [1], the logP stood at 0.45. Moreover, the logKA at Albumin is -0.314. The molecule `O=C(O)Cc1c[nH]c2ccc(O)cc12` returned a log partition coefficient (logP) in data set [1] of 0.74. The logKA on Albumin is recorded as -0.125. The matching figures for `CCCc1[nH]c2ccccc2c1CC(=O)O`: 2.56 and 0.15. The molecule `CCc1cccc2[nH]cc(CC(=O)O)c12` registered a lipophilicity (logP) in data set [1] of 2.33. At Albumin, this molecule registered a logKA of 0.393. As for `CCc1ccc2[nH]cc(CC(=O)O)c2c1`, in data set [1], the lipophilicity (logP) was determined as 2.54. Besides, the logKA at Albumin was determined as 0.49.

Take `O=C(O)Cc1c[nH]c2c(Cl)c(Cl)ccc12`: in data set [1], the logP was determined as 3.16. Moreover, the logKA at Albumin was 1.09. With `CCCCc1ccc2[nH]cc(CC(=O)O)c2c1`, the log partition coefficient (logP) in data set [1] was found to be 3.89. This molecule yielded a logKA on Albumin of 1.05. In the same order, the values of `Cc1ccc2[nH]cc(CC(=O)O)c2c1` are 1.99 and 0.217. In the same order, the values of `O=C(O)Cc1c[nH]c2cc(F)ccc12` are 1.74 and 0.308.

In the case of `O=C(O)Cc1c[nH]c2cc(Cl)cc(Cl)c12`, the logP in data set [1] came out at 3.29. The logKA at Albumin is listed as 1.082. The matching figures for `O=C(O)Cc1c[nH]c2ccc(F)cc12`: 1.72 and 0.261. `Cn1cc(CC(=O)O)c2ccccc21` showed a logP in data set [1] of 1.87. On Albumin, this molecule showed a logKA of 0.243.

In data set [1], `COc1ccc2[nH]cc(CC(=O)O)c2c1` returned a log partition coefficient (logP) of 1.23. Also, the logKA at Albumin is on record as 0.185. `O=C(O)Cc1c[nH]c2cc(Cl)ccc12` showed a logP in data set [1] of 2.41. The molecule also registered a logKA on Albumin of 0.863.

For the molecule `O=C(O)Cc1c[nH]c2cccc(F)c12`, in data set [1], the logP is 1.66. The molecule further had a logKA on Albumin of 0.305. In the same order, the values of `COc1ccc2[nH]c(C)c(CC(=O)O)c2c1` [DESCHLOROBENZOYL INDOMETHACIN] are 2.14 and 0.228. The matching figures for `O=C(O)Cc1c[nH]c2ccccc12` [INDOLE-3-ACETIC ACID]: 1.42 and 0.102.

The record behind these values is ChEMBL document CHEMBL1148690, “Binding of ring-substituted indole-3-acetic acids to human serum albumin” (Bioorg Med Chem, 2007).
